For one test, the target named is T1, CCR6 (Homo sapiens, UniProt P51684).
T1 construct: Human CD4+CCR6+CXCR3-T cells were isolated from leukopak from healthy donors; endogenous in cells
T1 sequence (P51684 1-374): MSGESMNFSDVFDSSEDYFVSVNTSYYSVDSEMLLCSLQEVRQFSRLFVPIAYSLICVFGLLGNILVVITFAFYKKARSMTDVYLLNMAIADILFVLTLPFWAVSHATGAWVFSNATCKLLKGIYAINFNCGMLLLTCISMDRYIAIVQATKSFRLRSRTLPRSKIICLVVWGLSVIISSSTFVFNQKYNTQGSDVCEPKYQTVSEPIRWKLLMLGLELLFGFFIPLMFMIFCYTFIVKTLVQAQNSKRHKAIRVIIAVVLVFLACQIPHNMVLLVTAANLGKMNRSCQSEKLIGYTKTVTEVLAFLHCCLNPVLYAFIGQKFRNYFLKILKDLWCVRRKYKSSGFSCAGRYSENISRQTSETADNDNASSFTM
The test is described as follows: CCR6+ T cell chemotaxis assay. It is filed as cell-based. From the text: Human CD4+CCR6+CXCR3-T cells were isolated from leukopak from healthy donors using EasySep™ Human Th17 Cell Enrichment Kit. […] Day 4 post activation, Dynabeads were removed from the culture. The activated T cells were maintained at 1-2×10^6 cells/mL for 15 days by feeding fresh growth media when needed.
For IC50 determination, the top and bottom of the chemotaxis chamber contained the same concentration of compound. DMSO was kept constant at 0.1% (v/v) in all wells. The final concentration of CCL20 (Peprotech 300-29A) in the bottom chamber is 0.5 nM. The fully assembled chemotaxis plate was placed in a cell culture incubator at 37° C., 5% CO2 for 1 h. After incubation, the top filter was removed, followed by a quick freeze of the bottom chamber at −80° C. for 1 h. The migrated cells in the bottom chamber were stained with CyQUANT dye (Life Technologies, C7026) for cell number determination.
IC50 values for compounds of the present invention (Table 1a) were determined by the non-linear regression analysis of dose response curves.

Another test deals with T2, CXCR2 (Homo sapiens, UniProt P25025).
T2 construct: Human neutrophils were purified from freshly drawn human whole blood; endogenous in cells; host or cells: primary human neutrophils from freshly drawn whole blood
T2 sequence (P25025 1-360): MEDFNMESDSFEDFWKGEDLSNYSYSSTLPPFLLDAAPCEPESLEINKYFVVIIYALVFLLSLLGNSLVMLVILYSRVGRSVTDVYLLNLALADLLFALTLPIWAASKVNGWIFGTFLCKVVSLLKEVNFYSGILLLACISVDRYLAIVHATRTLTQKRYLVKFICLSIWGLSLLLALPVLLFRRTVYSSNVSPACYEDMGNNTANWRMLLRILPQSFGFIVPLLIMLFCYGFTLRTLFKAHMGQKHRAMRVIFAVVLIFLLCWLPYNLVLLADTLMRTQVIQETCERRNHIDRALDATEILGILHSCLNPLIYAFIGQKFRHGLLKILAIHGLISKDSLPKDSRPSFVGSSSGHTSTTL
The test is described as follows: Human neutrophil chemotaxis assay. It is filed as cell-based. As to conditions: R = H; read-out: CXCR2 Neutrophil, GRO[…] Chemotaxis IC50. As for the experimental part: After 30 min, the labeled neutrophils were washed twice in chemotaxis buffer, resuspended as before and used immediately. For the assay, test compounds were tested in a dose-response format to determine IC50. Labeled neutrophils (50 μL) were pre-incubated with diluted test compound (50 μL) for 30 min in a 96-well plate (Greiner). Next, 100 μL of diluted compound was mixed with 100 μL of GROα (Peprotech #300-11, 2 nM) in the bottom portion of the chemotaxis chamber.
The top portion (insert) of the chemotaxis system containing the FluoroBlok porous membrane was then assembled together. 50 μL of the pre-incubated neutrophils were added to the FluoroBlok insert (top portion) and chemotaxis measured by the neutrophils ability to migrate through the membrane towards the specific CXCR2 ligand, GROα.

The record followed here is US20250296920A1, “FORMULATIONS COMPRISING N-SUBSTITUTED-DIOXOCYCLOBUTENYLAMINO-3-HYDROXY-PICOLINAMIDE COMPOUNDS AND USES THEREOF” (Pfizer Inc., priority 2024, published 2025).

On to `Cc1cn(C)nc1[C@H](Nc1c(Nc2ccnc(C(=O)N(C)C)c2O)c(=O)c1=O)C1(C)CC1` [Example 20, (R)-4-((2-(((1,4-Dimethyl-1H-pyrazol-3-yl)(1-methylcyclopropyl)methyl)amino)-3,4-dioxocyclobut-1-en-1-yl)amino)-3-hydroxy-N,N-dimethylpicolinamide], for which the “T Cell Chemotaxis Selectivity” value on CCR6 (T cell chemotaxis compared to neutrophil chemotaxis) is recorded as “NS** (Not selective for T cell chemotaxis compared to neutrophil chemotaxis)”.

As for `CN(C)C(=O)c1nccc(Nc2c(N[C@@H](c3ccn(C)n3)C3(C)CCCC3)c(=O)c2=O)c1O` [drawing 157 (R = H)], the IC50 on CCR6 (R = H, read-out: CCR6 T cell, CCL20 Chemotaxis IC50) was determined as 19.2 nM; at CXCR2, 42.1 nM.

For `Cc1nc([C@H](Nc2c(Nc3ccnc(C(=O)N(C)C)c3O)c(=O)c2=O)C2(C)CCCC2)co1` [drawing 159 (R = H)], at CCR6 (R = H), the “T Cell Chemotaxis Selectivity” value is listed as “NS* (Not selective for T cell chemotaxis compared to neutrophil chemotaxis)”.

As a reminder, the IC50 is the point on the concentration scale where inhibition reaches its midpoint.
